We go through twelve compounds from patent publication EP4168403B1 (priority 2020, dated 2021).

Several values for one entry are separate records, joined by “and”; a condition that tells them apart may be missing. Equal values may be shown once. Read-outs that look alike come from different tables or passages of the source.

A short description of assay [1]: Oxygen Radical Absorbance Capacity (ORAC-FL) assay. To be noted: Trolox equivalents (µmol of Trolox equivalent/µmol of compound). On the procedure: The radical scavenging capacity of the TFAHs was determined by the ORAC-FL method using fluorescein as a fluorescent probe^33,34. (±)-6-Hydroxy-2,5,7,8-tetramethylchromane-2-carboxylic acid (Trolox), fluorescein (FL) and 2,2'-azobis(amidinopropane) dihydrochloride (AAPH) were purchased from Sigma-Aldrich. A Varioskan Flash plate reader with built-in injectors (Thermo Scientific) was used. The reaction was carried out at 37 °C in 75 mM phosphate buffer (pH= 7.4), and the final volume reaction mixture was 200 µL. The tested compounds and Trolox standard were dissolved in DMSO to 10 mM and further diluted in 75 mM phosphate buffer (pH= 7.4). The final concentrations were 0.1-1 µM for the tested compounds and 1-8 µM for Trolox standard. The blank was composed of 120 µL of FL, 60 µL of AAPH and 20 µL of phosphate buffer (pH=7.4) and was added in each assay.
The net AUC corresponding to a sample was calculated as follows: Net AUC = AUCantioxidant −AUCblank . [formula]
Regression equations were calculated by plotting the net AUC against the antioxidant concentration. The ORAC value was obtained by dividing the slope of the latter curve between the slope of the Trolox curve obtained in the same assay. Final ORAC values were expressed as µmol of Trolox equivalent/µmol of TFAH.

The subject of assay [2] is voltage-gated Ca^2+ channels (VGCC). The assay can be described thus: Calcium channel antagonist assay (K+-evoked cytosolic Ca2+, Fluo-4). The format is cell-based. The procedure: The cytosolic Ca^2+ has been measured in SH-SY5Y cells. SH-SY5Y cells were maintained similarly to what was previously described^30. Free cytosolic Ca^2+ was measured using the fluorescent Ca^2+ indicator Fluo-4/AM (Fluo-4 acetomethoxyester). SH-SY5Y cells were seeded onto 96-well black plates at a density of 10^5 cells per well, achieving confluence after 48 h. Cells were washed with Krebs-Hepes solution (KH, in mM: 144 NaCl, 5.9 KCl, 1.2 MgCl2, 2 CaCl2, 11 D-glucose, 10 HEPES, pH 7.4). Cells were loaded with 10 µM Fluo-4/AM and 0.2% pluronic acid in KH and incubated for 45 min at 37 °C in the dark. Then, cells were washed twice with KH to remove the excess of probe. Tested compounds were incubated 10 min before K+ 70 mM was applied to evoke the increment of cytosolic Ca^2+. To normalize Fluo-4 signals, Triton X-100 (5%) and 1 M MnCl2 were applied to register both maximal and minimal fluorescence, respectively. The experiments were analyzed at excitation and emission wavelengths of 485 and 520 nm, respectively, and fluorescence was measured in a fluorescence microplate reader (FLUOstar Optima, BMG, Germany). Data were calculated as a percentage of Fmax - Fmin.
The blocking effect of the depolarization-induced Ca^2+ uptake was investigated in SH-SY5Y neuroblastoma cells stimulated with an extracellular concentration of K+ 70 mM, which induces the cell Ca^2+ levels elevation by opening voltage-gated Ca^2+ channels (VGCC), monitored with the Ca^2+-sensitive fluorescent dye Fluo-4. Nifedipine was used as positive standard.

Assay [3] addresses T1, human recombinant butyrylcholinesterase (hBuChE; EC 3.1.1.8) (Homo sapiens, UniProt P06276).
T1 construct: purchased Sigma-Aldrich (Prague, Czech Republic)
The assay can be described thus: Cholinesterase inhibition in vitro assay (modified Ellman's method), BuChE. The assay is classed as biochemical. The following applies: pH 7.4, 37 °C, mean ± SEM, read-out: BChE (IC50 µM). On the procedure:
The AChE and BuChE inhibitory activity of the tested compounds was determined using a modified Ellman's method^31, 32.Human red-blood cell acetylcholinesterase (hAChE; EC 3.1.1.7), and human recombinant butyrylcholinesterase (hBuChE; EC 3.1.1.8), 5,5'-dithiobis(2-nitrobenzoic acid) (Ellman's reagent, DTNB), phosphate buffer (PB, pH 7.4), acetylthiocholine (ATC), and butyrylthiocholine (BTC), were purchased from Sigma-Aldrich (Prague, Czech Republic). Nunc polystyrene 96-well microplates with flat-bottom shape (ThermoFisher Scientific, USA) were used for the measurement and all the assay were carried out in 0.1 M KH2PO4/K2HPO4 buffer, pH 7.4. Enzyme solution was prepared at activity 2.0 units/mL in 2 mL aliquots. The assay mixture (100 µL) consisted of 40 µL of 0.1 M phosphate buffer (pH 7.4), 20 µL of 0.01 M DTNB, 10 µL of enzyme, and 20 µL of 0.01 M substrate (ATC iodide solution). Tested compounds were dissolved first in methanol (BIGI 23 in DMSO) and then further diluted by assay buffer to the final concentration. […]. […] Enzyme with the inhibitor was preincubated for 5 min in the assay mixture and then the reaction was started by addition of 20 µL of substrate (ATC for AChE, BTC for BuChE). The enzyme activity was determined by measuring the increase in absorbance at 412 nm at 37 °C at 2 min intervals using a Multi-mode microplate reader Synergy 2 (Vermont, USA). Each concentration was assayed in triplicate. The obtained data were used to compute the percentage inhibition (I; Equation 1): I = 1−(ΔAi)/(ΔA0) [%] [formula] ΔAi indicates the absorbance change provided by cholinesterase exposed to AChE inhibitors and ΔA0 indicates absorbance change caused by intact cholinesterase (phosphate buffer was used instead of AChE inhibitor solution). […] Calculations were performed using software Microsoft Excel (Redmont, WA, USA) and GraphPad Prism version 5.02 for Windows, GraphPad Software, San Diego, CA, USA.

Assay [4] has as its target T2, Human red-blood cell acetylcholinesterase (hAChE; EC 3.1.1.7) (Homo sapiens, UniProt P22303).
T2 construct: Human red-blood cell acetylcholinesterase; purchased Sigma-Aldrich (Prague, Czech Republic); host or cells: human red blood cells
The assay can be described thus: biochemical. The following applies: pH 7.4, 37 °C, mean ± SEM, read-out: AChE (IC50 µM). The procedure:
The AChE and BuChE inhibitory activity of the tested compounds was determined using a modified Ellman's method^31, 32.Human red-blood cell acetylcholinesterase (hAChE; EC 3.1.1.7), and human recombinant butyrylcholinesterase (hBuChE; EC 3.1.1.8), 5,5'-dithiobis(2-nitrobenzoic acid) (Ellman's reagent, DTNB), phosphate buffer (PB, pH 7.4), acetylthiocholine (ATC), and butyrylthiocholine (BTC), were purchased from Sigma-Aldrich (Prague, Czech Republic). Nunc polystyrene 96-well microplates with flat-bottom shape (ThermoFisher Scientific, USA) were used for the measurement and all the assay were carried out in 0.1 M KH2PO4/K2HPO4 buffer, pH 7.4. Enzyme solution was prepared at activity 2.0 units/mL in 2 mL aliquots. The assay mixture (100 µL) consisted of 40 µL of 0.1 M phosphate buffer (pH 7.4), 20 µL of 0.01 M DTNB, 10 µL of enzyme, and 20 µL of 0.01 M substrate (ATC iodide solution). Tested compounds were dissolved first in methanol (BIGI 23 in DMSO) and then further diluted by assay buffer to the final concentration. […] Enzyme with the inhibitor was preincubated for 5 min in the assay mixture and then the reaction was started by addition of 20 µL of substrate (ATC for AChE, BTC for BuChE). […] Each concentration was assayed in triplicate. The obtained data were used to compute the percentage inhibition (I; Equation 1): I = 1−(ΔAi)/(ΔA0) [%] [formula] ΔAi indicates the absorbance change provided by cholinesterase exposed to AChE inhibitors and ΔA0 indicates absorbance change caused by intact cholinesterase (phosphate buffer was used instead of AChE inhibitor solution).

Setting [5] is: SH-SY5Y cells, K+ 70 mM, mean ± SEM, read-out: IC50 (µM) Calcium channels blockade.

T2 sequence (P22303 32-617 isoform P22303-2 limits assumed): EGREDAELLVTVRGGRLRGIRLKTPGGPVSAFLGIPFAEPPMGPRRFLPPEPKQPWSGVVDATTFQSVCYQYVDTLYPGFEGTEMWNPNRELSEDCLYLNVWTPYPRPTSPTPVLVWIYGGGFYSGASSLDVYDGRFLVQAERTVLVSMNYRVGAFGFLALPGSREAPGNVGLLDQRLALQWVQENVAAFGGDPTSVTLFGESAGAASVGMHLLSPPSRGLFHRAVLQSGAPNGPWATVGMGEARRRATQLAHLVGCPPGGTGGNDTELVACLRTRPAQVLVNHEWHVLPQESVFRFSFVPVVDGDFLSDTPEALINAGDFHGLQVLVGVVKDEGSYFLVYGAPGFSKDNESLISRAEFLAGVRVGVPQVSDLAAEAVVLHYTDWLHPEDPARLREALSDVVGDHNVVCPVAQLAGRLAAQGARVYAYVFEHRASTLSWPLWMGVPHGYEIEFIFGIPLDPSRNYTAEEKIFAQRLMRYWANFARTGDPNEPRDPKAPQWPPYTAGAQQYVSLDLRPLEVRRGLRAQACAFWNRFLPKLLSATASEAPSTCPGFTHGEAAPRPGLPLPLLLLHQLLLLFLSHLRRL
T1 sequence (P06276 29-602): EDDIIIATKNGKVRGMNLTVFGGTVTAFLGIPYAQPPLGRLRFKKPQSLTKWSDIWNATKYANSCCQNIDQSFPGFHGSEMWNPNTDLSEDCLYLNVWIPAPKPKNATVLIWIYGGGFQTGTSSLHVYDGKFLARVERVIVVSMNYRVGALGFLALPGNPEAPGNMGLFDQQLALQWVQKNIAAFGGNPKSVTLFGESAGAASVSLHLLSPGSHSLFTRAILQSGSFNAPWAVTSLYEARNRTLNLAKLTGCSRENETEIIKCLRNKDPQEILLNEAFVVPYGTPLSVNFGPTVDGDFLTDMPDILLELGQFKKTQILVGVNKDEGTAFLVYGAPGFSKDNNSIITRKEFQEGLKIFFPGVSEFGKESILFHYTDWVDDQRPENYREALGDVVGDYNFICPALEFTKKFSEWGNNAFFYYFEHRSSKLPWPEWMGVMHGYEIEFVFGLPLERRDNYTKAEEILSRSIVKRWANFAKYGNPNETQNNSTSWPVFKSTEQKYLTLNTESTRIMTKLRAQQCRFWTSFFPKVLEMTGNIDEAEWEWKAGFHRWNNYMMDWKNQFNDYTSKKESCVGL

Take `CCOC(=O)C1=C(C)N(CC2CCN(Cc3ccccc3)CC2)C(=O)NC1c1coc2ccccc2c1=O` (stereo not drawn) [BIGI-3a, ethyl 1-((1-benzylpiperidin-4-yl)methyl)-6-methyl-2-oxo-4-(4-oxo-4H-chromen-3-yl)-1,2,3,4-tetrahydropyrimidine-5-carboxylate]: the ORAC in assay [1] is reported as 3.29 ± 0.07 TE. Moreover, the IC50 in assay [2] (setting [5]) was found to be 14 ± 3 µM; in assay [3], 14.8 ± 0.7 µM.
Turning to `CCOC(=O)C1=C(C)N(CC2CCN(Cc3ccccc3)CC2)C(=O)NC1c1coc2ccc(Br)cc2c1=O` (stereo not drawn) [BIGI-3b, ethyl 1-((1-benzylpiperidin-4-yl)methyl)-4-(6-bromo-4-oxo-4H-chromen-3-yl)-6-methyl-2-oxo-1,2,3,4-tetrahydropyrimidine-5-carboxylate], in assay [1], the ORAC was found to be 2.06 ± 0.17 TE. Moreover, the IC50 in assay [2] (setting [5]) stood at 6 ± 3 µM.
Turning to `CCOC(=O)C1=C(C)N(CC2CCN(Cc3ccccc3)CC2)C(=O)NC1c1coc2cc(CC)ccc2c1=O` (stereo not drawn) [BIGI-3c, ethyl 1-((1-benzylpiperidin-4-yl)methyl)-4-(7-ethyl-4-oxo-4H-chromen-3-yl)-6-methyl-2-oxo-1,2,3,4-tetrahydropyrimidine-5-carboxylate], the ORAC in assay [1] amounted to 3.51 ± 0.09 TE. The IC50 was 3 ± 0.9 µM in assay [2] (setting [5]), 6.08 ± 0.38 µM in assay [4] and 36.1 ± 3.1 µM in assay [3].
Regarding `CCOC(=O)C1=C(C)N(CCC2CCN(Cc3ccccc3)CC2)C(=O)NC1c1coc2ccccc2c1=O` (stereo not drawn) [BIGI-3d, ethyl 1-(2-(1-benzylpiperidin-4-yl)ethyl)-6-methyl-2-oxo-4-(4-oxo-4H-chromen-3-yl)-1,2,3,4-tetrahydropyrimidine-5-carboxylate], the ORAC in assay [1] is given as 2.53 ± 0.17 TE. For the same compound, the IC50 in assay [2] (setting [5]) was 9 ± 2 µM; in assay [4], 0.23 ± 0.01 µM; in assay [3], 6.58 ± 0.34 µM.
As to `CCOC(=O)C1=C(C)N(CCC2CCN(Cc3ccccc3)CC2)C(=O)NC1c1coc2cc(CC)ccc2c1=O` (stereo not drawn) [BIGI-3f, ethyl 1-(2-(1-benzylpiperidin-4-yl)ethyl)-4-(7-ethyl-4-oxo-4H-chromen-3-yl)-6-methyl-2-oxo-1,2,3,4-tetrahydropyrimidine-5-carboxylate], the ORAC in assay [1] stood at 2.20 ± 0.05 TE. In addition, the IC50 amounted to 2.2 ± 0.6 µM in assay [2] (setting [5]), 0.3 ± 0.01 µM in assay [4] and 5.96 ± 0.22 µM in assay [3].
The matching figures for `CCOC(=O)C1=C(C)N(CCC2CCN(Cc3ccccc3)CC2)C(=O)NC1c1coc2cc(C)c(Cl)cc2c1=O` (stereo not drawn) [BIGI-3g, ethyl 1-(2-(1-benzylpiperidin-4-yl)ethyl)-4-(6-chloro-7-methyl-4-oxo-4H-chromen-3-yl)-6-methyl-2-oxo-1,2,3,4-tetrahydropyrimidine-5-carboxylate]: 2.56 ± 0.13 TE, 1.7 ± 0.6 µM, 0.29 ± 0.01 µM and 15.7 ± 0.9 µM.
As for `CCOC(=O)C1=C(C)N(CCCC2CCN(Cc3ccccc3)CC2)C(=O)NC1c1coc2ccccc2c1=O` (stereo not drawn) [BIGI-3i, ethyl 1-(3-(1-benzylpiperidin-4-yl)propyl)-6-methyl-2-oxo-4-(4-oxo-4H-chromen-3-yl)-1,2,3,4-tetrahydropyrimidine-5-carboxylate], the ORAC in assay [1] came out at 3.09 ± 0.07 TE. Besides, the concentration for half-maximal inhibition (IC50) in assay [2] (setting [5]) was 8 ± 1 µM; in assay [4], 0.15 µM; in assay [3], 4.29 ± 0.09 µM.
The matching figures for `CCOC(=O)C1=C(C)N(CCCC2CCN(Cc3ccccc3)CC2)C(=O)NC1c1coc2ccc(Br)cc2c1=O` (stereo not drawn) [BIGI-3j, ethyl 1-(3-(1-benzylpiperidin-4-yl)propyl)-4-(6-bromo-4-oxo-4H-chromen-3-yl)-6-methyl-2-oxo-1,2,3,4-tetrahydropyrimidine-5-carboxylate]: 3.24 ± 0.02 TE, 3.8 ± 0.1 µM, 0.18 ± 0.01 µM and 6.51 ± 0.45 µM.
With `CCOC(=O)C1=C(C)N(CCCC2CCN(Cc3ccccc3)CC2)C(=O)NC1c1coc2cc(C)c(Cl)cc2c1=O` (stereo not drawn) [BIGI-3l, ethyl 1-(3-(1-benzylpiperidin-4-yl)propyl)-4-(6-chloro-7-methyl-4-oxo-4H-chromen-3-yl)-6-methyl-2-oxo-1,2,3,4-tetrahydropyrimidine-5-carboxylate], in assay [1], the ORAC was determined as 1.68 ± 0.18 TE. For the same compound, the figures for the IC50 in assay [2] (setting [5]), in assay [4] and in assay [3] were 3.2 ± 0.2 µM, 0.17 ± 0.01 µM and 6.26 ± 0.31 µM, respectively.
With `CCOC(=O)C1=C(C)N(CCCC2CCN(Cc3ccccc3)CC2)C(=O)NC1c1coc2c(Cl)cc(Cl)cc2c1=O` (stereo not drawn) [BIGI-3m, ethyl 1-(3-(1-benzylpiperidin-4-yl)propyl)-4-(6,8-dichloro-4-oxo-4H-chromen-3-yl)-6-methyl-2-oxo-1,2,3,4-tetrahydropyrimidine-5-carboxylate], in assay [1], the ORAC is given as 3.29± 0.10 TE. In addition, the results for the IC50 in assay [2] (setting [5]), in assay [4] and in assay [3] were 5 ± 2 µM, 0.34 ± 0.02 µM and 14.4 ± 1.2 µM, respectively.
With `COc1cc(/C=C/C(=O)O)ccc1O` [Ferulic acid, reference compound], the ORAC in assay [1] was 3.7 TE and 3.7 ± 0.2 TE.
With `COC(=O)C1=C(C)NC(C)=C(C(=O)OC)C1c1ccccc1[N+](=O)[O-]` [Nifedipine, reference compound], the half-inhibitory concentration (IC50) in assay [2] (read-out: IC50 (µM) Calcium channels blockade, SH-SY5Y cells, K+ 70 mM, mean ± SEM) amounted to 6.2 ± 0.2 µM.

As a reminder, the IC50 is the concentration needed to halve the response being measured.
